Experimental findings from patent publication US20240101576A1, “HETEROCYCLIC INHIBITORS OF EGFR AND/OR HER2, FOR USE IN THE TREATMENT OF CANCER” (Scorpion Therapeutics, Inc., priority 2020, published 2024) are described below.

What all share (assay type): cell-based
Test [1] concerns the target T1, EGFR exon 20 ASV Ins V769_D770 (Ba/F3 cells) (Homo sapiens, UniProt P00533, INS769ASV).
T1 construct: expressed in transfected cells; host or cells: Ba/F3 (murine pro-B cells), retroviral transduction, puromycin selection, IL3-independent pool
Put plainly: Inhibitor activity on EGFR-dependent cell growth (CellTiter-Glo, 72 h), Ba/F3 EGFR exon 20 ASV Ins. The following applies: read-out: BaF3 ASV IC50. In a few lines:
(§1)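 IC50s derive from a sigmoidal dose–response fit of CellTiter-Glo signal. The signal was normalised between […]-treated cells and cell-free medium. Ba/F3 mutant-EGFR cells, seeded at 400–800/well depending on the line, had 72 h of exposure to a 10-point, 3-fold compound series.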

Test [2] addresses T2, EGFR exon 20 SVD Ins D770_N771 (Ba/F3 cells) (Homo sapiens, UniProt P00533, INS770SVD).
T2 construct: expressed in transfected cells; host or cells: Ba/F3 (murine pro-B cells), retroviral transduction, puromycin selection, IL3-independent pool
Put plainly: Inhibitor activity on EGFR-dependent cell growth (CellTiter-Glo, 72 h), Ba/F3 EGFR exon 20 SVD Ins. Particulars: read-out: BaF3 SVD IC50. In a few lines:
as §1
On the technique in general: Cellular ATP, detected with luciferase, serves as a proxy for viable cell number.

Another test has as its target T3, EGFR WT (Ba/F3 cells) (Homo sapiens, UniProt P00533).
T3 construct: expressed in transfected cells; host or cells: Ba/F3 (murine pro-B cells), retroviral transduction, puromycin selection, maintained with EGF
Put plainly: Inhibitor activity on EGFR-dependent cell growth (CellTiter-Glo, 72 h), Ba/F3 EGFR WT. Particulars: read-out: BaF3 WT IC50. In a few lines:
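This growth assay used Ba/F3 cells that depend on wild-type EGFR and are kept in EGF without IL3. Compounds were made up as 10 mM DMSO stocks and diluted 3-fold over 10 points. 120 nL went onto 600 cells/well. After 72 hours, 40 μL CellTiter-Glo was added and luminescence read on EnVision after 30 min.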

The target in test [3] is T4, EGFR exon 20 FQEA Ins A763_V764 (Ba/F3 cells) (Homo sapiens, UniProt P00533, INS763FQEA).
T4 construct: expressed in transfected cells; host or cells: Ba/F3 (murine pro-B cells), retroviral transduction, puromycin selection, IL3-independent pool
T4 sequence (P00533 with tags, fused parts or gaps INS763FQEA): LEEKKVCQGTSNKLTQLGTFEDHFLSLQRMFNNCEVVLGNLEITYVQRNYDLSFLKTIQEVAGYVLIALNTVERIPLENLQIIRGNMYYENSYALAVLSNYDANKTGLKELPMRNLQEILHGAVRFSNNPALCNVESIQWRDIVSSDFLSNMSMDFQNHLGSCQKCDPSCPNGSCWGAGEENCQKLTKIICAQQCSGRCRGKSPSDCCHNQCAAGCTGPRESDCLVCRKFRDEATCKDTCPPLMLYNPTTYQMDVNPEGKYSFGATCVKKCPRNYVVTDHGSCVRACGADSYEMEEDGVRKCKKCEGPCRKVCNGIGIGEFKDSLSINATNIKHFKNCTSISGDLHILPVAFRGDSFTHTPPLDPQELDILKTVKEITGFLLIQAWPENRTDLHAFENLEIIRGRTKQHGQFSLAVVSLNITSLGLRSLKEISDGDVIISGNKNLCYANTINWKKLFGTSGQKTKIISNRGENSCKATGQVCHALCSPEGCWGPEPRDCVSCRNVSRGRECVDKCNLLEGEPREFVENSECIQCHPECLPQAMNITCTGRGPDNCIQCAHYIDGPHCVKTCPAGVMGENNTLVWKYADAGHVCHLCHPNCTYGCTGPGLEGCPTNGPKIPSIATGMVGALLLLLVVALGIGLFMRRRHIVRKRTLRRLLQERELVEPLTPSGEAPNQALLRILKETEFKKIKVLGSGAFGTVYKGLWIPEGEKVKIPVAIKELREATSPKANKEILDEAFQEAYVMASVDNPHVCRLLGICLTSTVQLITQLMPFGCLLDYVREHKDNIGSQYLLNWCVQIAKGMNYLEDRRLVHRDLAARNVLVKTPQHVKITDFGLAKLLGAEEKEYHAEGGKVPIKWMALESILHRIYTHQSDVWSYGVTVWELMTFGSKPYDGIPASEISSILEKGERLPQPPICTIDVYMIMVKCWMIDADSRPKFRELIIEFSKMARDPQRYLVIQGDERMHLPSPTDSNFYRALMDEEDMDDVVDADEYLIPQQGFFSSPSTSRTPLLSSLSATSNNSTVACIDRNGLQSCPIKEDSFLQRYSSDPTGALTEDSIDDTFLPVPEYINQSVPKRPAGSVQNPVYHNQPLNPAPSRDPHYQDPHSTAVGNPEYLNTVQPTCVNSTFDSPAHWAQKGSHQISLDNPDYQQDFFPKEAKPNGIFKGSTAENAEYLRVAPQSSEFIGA
Put plainly: Inhibitor activity on EGFR-dependent cell growth (CellTiter-Glo, 72 h), Ba/F3 EGFR exon 20 FQEA Ins. Particulars: read-out: BaF3 FQEA IC50. In a few lines:
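Cell viability was measured by CellTiter-Glo after a three-day treatment. The IL3-free Ba/F3 lines carried L858R, L858R/C797S, exon 19 deletion or FQEA insertion EGFR and were seeded at 400, 600, 800 and 800 cells/well respectively.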

T3 sequence (P00533 25-1210): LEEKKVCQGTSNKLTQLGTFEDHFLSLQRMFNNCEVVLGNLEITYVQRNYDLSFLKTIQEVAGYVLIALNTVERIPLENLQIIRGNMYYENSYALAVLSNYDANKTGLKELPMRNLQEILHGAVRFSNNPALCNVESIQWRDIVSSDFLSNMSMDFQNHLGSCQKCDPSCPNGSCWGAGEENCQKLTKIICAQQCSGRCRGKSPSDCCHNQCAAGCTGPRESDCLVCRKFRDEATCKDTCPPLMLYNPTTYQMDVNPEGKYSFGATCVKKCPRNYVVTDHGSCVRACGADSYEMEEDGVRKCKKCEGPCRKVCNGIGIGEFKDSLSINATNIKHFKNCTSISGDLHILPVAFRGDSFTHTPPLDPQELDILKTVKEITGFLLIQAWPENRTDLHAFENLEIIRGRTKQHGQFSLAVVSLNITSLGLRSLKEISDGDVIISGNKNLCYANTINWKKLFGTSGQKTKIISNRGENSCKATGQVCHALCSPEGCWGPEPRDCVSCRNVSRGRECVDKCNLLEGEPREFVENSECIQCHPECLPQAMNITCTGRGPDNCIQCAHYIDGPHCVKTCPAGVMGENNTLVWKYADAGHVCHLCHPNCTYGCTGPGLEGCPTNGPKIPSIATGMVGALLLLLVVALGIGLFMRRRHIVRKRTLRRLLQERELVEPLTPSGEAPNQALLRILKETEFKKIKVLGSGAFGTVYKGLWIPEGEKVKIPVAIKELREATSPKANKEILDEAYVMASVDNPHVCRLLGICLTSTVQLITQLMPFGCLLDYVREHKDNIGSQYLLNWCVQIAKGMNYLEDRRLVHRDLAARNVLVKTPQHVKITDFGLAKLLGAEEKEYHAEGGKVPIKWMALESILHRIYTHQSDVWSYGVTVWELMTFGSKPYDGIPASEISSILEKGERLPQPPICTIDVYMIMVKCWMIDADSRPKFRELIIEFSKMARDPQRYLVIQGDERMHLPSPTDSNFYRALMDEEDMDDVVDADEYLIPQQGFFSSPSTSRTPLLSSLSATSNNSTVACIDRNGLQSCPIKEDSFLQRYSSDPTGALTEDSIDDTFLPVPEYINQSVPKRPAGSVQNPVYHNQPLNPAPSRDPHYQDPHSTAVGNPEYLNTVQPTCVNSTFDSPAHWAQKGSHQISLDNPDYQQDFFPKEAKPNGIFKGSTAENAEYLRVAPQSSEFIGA
T1 sequence (P00533 with tags, fused parts or gaps INS769ASV): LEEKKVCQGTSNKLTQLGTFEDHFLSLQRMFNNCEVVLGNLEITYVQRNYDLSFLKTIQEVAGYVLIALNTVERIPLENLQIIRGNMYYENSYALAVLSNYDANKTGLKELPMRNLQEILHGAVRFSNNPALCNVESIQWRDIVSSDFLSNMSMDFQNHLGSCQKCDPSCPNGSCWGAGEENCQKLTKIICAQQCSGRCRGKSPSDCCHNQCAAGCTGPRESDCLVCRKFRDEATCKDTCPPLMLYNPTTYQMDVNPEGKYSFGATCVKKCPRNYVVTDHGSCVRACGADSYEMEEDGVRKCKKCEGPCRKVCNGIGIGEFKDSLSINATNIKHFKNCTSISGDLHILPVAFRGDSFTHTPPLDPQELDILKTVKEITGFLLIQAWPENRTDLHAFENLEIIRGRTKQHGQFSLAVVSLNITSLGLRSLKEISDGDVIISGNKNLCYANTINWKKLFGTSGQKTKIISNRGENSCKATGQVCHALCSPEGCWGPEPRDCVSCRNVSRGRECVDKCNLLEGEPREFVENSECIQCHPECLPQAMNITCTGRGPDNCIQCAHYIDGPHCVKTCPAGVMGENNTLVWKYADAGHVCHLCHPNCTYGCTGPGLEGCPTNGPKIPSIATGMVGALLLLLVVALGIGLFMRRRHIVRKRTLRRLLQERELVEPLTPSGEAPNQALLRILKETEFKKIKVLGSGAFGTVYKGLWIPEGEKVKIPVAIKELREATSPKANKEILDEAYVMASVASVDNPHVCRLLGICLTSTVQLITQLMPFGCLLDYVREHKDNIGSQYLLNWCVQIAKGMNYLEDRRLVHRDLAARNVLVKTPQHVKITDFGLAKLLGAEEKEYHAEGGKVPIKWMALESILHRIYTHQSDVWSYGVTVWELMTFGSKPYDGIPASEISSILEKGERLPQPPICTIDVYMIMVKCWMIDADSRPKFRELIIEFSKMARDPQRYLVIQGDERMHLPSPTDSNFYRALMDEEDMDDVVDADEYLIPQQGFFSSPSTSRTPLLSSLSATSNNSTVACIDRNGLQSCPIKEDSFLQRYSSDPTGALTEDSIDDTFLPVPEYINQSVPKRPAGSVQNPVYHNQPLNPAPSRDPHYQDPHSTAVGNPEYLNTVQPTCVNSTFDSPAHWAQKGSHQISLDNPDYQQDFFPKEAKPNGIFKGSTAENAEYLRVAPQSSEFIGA
T2 sequence (P00533 with tags, fused parts or gaps INS770SVD): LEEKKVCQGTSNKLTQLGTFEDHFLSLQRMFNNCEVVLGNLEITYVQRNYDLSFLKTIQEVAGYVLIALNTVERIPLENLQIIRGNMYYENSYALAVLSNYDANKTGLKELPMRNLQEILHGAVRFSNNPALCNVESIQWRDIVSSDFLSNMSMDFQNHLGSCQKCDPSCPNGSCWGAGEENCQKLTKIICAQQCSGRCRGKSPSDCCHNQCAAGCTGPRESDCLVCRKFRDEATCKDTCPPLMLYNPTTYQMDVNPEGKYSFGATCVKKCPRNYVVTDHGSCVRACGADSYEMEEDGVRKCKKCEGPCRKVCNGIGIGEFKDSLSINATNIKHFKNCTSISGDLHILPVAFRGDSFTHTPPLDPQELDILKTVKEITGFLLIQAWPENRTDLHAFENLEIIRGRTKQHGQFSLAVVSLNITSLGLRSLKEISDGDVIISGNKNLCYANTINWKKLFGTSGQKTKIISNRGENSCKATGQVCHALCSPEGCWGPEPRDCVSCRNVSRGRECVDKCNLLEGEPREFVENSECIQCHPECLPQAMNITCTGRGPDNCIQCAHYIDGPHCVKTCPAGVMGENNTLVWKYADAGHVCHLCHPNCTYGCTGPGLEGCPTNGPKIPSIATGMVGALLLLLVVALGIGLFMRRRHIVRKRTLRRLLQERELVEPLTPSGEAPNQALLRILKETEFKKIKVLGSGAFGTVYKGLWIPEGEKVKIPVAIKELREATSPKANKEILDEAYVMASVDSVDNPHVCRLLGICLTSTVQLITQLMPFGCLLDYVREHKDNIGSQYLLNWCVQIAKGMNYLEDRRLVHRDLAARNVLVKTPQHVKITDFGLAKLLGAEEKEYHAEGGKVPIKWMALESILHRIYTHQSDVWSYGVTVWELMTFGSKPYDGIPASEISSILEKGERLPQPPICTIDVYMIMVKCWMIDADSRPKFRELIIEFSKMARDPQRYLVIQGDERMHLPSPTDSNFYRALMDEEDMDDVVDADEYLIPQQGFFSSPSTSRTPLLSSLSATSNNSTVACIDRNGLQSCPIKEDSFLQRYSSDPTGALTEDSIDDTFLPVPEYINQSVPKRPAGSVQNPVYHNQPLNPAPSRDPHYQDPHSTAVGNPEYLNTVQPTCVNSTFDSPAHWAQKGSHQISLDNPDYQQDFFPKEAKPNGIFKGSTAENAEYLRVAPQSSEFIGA

What is called IC50 is the concentration at which inhibition is half-maximal. `COc1c(Cl)cccc1Nc1c(-c2ccncc2F)[nH]c2c1C(=O)NC[C@H]2CC(C)(C)O` [compound 495, (7R)-3-[(3-chloro-2-methoxyphenyl)amino]-2-(3-fluoropyridin-4-yl)-7-(2-hydroxy-2-methylpropyl)-1H,5H,6H,7H-pyrrolo[3,2-c]pyridin-4-one]: the IC50 is below 0.1 µM in test [1], below 0.1 µM in test [2], above 1 µM at EGFR WT (Ba/F3 cells) and below 0.1 µM in test [3].
Regarding `COc1c(Cl)cccc1Nc1c(-c2ccnc3ccc(OC4CC4)nc23)[nH]c2c1C(=O)NC[C@H]2C` [Compound 769, (R)-3-((3-chloro-2-methoxyphenyl)amino)-2-(6-cyclopropoxy-1,5-naphthyridin-4-yl)-7-methyl-1,5,6,7-tetrahydro-4H-pyrrolo[3,2-c]pyridin-4-one], the half-inhibitory concentration (IC50) (in test [1]; in test [2]; at EGFR WT (Ba/F3 cells); in test [3]) was below 0.1 µM throughout.
For the compound `COc1c(F)cccc1Nc1c(-c2ccnc3cnc(OC4COC4)nc23)[nH]c2c1C(=O)NCC2` [compound 440], the IC50 in test [1] was below 0.1 µM; in test [2], below 0.1 µM; at EGFR WT (Ba/F3 cells), 0.1 to 1 µM; in test [3], below 0.1 µM.
As for `COc1c(Cl)cccc1Nc1c(-c2ccncc2F)[nH]c2c1C(=O)NC[C@@]21CCN(S(C)(=O)=O)C1` [compound 493], the IC50 was 0.1 to 1 µM in test [1], 0.1 to 1 µM in test [2], above 1 µM at EGFR WT (Ba/F3 cells) and 0.1 to 1 µM in test [3].
In the case of `COC(=O)N1CCC2(CC1)CNC(=O)c1c2[nH]c(-c2ccncc2F)c1Nc1cccc(Cl)c1OC` [Compound 479, methyl 3′-[(3-chloro-2-methoxyphenyl)amino]-2′-(3-fluoropyridin-4-yl)-4′-oxo-5′,6′-dihydro-1′H-spiro[piperidine-4,7′-pyrrolo[3,2-c]pyridine]-1-carboxylate], the half-maximal inhibitory concentration (IC50) in test [1] is 0.1 to 1 µM; in test [2] it was 0.1 to 1 µM; on EGFR WT (Ba/F3 cells) it was above 1 µM; in test [3], 0.1 to 1 µM.
For the compound `COc1c(Cl)cccc1Nc1c(-c2ccnc(Nc3cnoc3C)n2)[nH]c2c1C(=O)NCC2` [compound 510, 3-[(3-chloro-2-methoxyphenyl)amino]-2-{2-[(5-methyl-1,2-oxazol-4-yl)amino]pyrimidin-4-yl}-1H,5H,6H,7H-pyrrolo[3,2-c]pyridin-4-one], the IC50 is below 0.1 µM in test [1], below 0.1 µM in test [2], above 1 µM on EGFR WT (Ba/F3 cells) and 0.1 to 1 µM in test [3].
In the case of `COc1c(Cl)cccc1Nc1c(-c2ccncc2F)[nH]c2c1C(=O)NC[C@]21CCN(S(C)(=O)=O)C1` [compound 494], the concentration for half-maximal inhibition (IC50) (in test [1]; in test [2]; on EGFR WT (Ba/F3 cells); in test [3]) was above 1 µM each time.
Turning to `COc1c(Cl)cccc1Nc1c(-c2ccncc2F)[nH]c2c1C(=O)NCC21COC1` [Compound 748, 3′-[(3-chloro-2-methoxyphenyl)amino]-2′-(3-fluoropyridin-4-yl)-5′,6′-dihydro-1′H-spiro[oxetane-3,7′-pyrrolo[3,2-c]pyridin]-4′-one], the IC50 in test [1] was 0.1 to 1 µM; in test [2], 0.1 to 1 µM; at EGFR WT (Ba/F3 cells) it was above 1 µM; in test [3] it was 0.1 to 1 µM.
`COc1ncc2nccc(-c3[nH]c4c(c3Nc3cc(F)cc(Cl)c3OC)C(=O)NCC4)c2n1` [Compound 792, 3-[(3-chloro-5-fluoro-2-methoxyphenyl)amino]-2-[2-methoxypyrido[3,2-d]pyrimidin-8-yl]-1H,5H,6H,7H-pyrrolo[3,2-c]pyridin-4-one]: the concentration for half-maximal inhibition (IC50) is below 0.1 µM in test [1], below 0.1 µM in test [2], 0.1 to 1 µM at EGFR WT (Ba/F3 cells) and below 0.1 µM in test [3].
Regarding `COC[C@@H]1CNC(=O)c2c1[nH]c(-c1ccnc3ccc(OC)nc13)c2Nc1cccc(Cl)c1OC` (single isomer, unassigned) [Compound 765], the IC50 (in test [1]; in test [2]; at EGFR WT (Ba/F3 cells); in test [3]) was below 0.1 µM throughout.
In the case of `C=CC(=O)N1CC[C@@]2(CNC(=O)c3c2[nH]c(-c2ccncc2F)c3Nc2cccc(Cl)c2OC)C1` [compound 521], the IC50 is 0.1 to 1 µM in test [1], 0.1 to 1 µM in test [2], above 1 µM on EGFR WT (Ba/F3 cells) and 0.1 to 1 µM in test [3].
In the case of `COc1ncc2nccc(-c3[nH]c4c(c3Nc3cccc(Cl)c3F)C(=O)NCC4)c2n1` [Compound 799, 3-[(3-chloro-2-fluorophenyl)amino]-2-[2-methoxypyrido[3,2-d]pyrimidin-8-yl]-1H,5H,6H,7H-pyrrolo[3,2-c]pyridin-4-one], the IC50 in test [1] was below 0.1 µM; in test [2], below 0.1 µM; on EGFR WT (Ba/F3 cells), 0.1 to 1 µM; in test [3], below 0.1 µM.
With `COc1c(Cl)cccc1Nc1c(-c2ccncc2F)[nH]c2c1C(=O)NC[C@H]2CC(=O)N(C)C` [Compound 487], the half-maximal inhibitory concentration (IC50) was 0.1 to 1 µM in test [1], 0.1 to 1 µM in test [2], above 1 µM on EGFR WT (Ba/F3 cells) and 0.1 to 1 µM in test [3].
As for `COc1c(Cl)cccc1Nc1c(-c2ccncc2F)[nH]c2c1C(=O)NC[C@H]2CCF` [compound 812], the IC50 in test [1] was 0.1 to 1 µM; in test [2], 0.1 to 1 µM; at EGFR WT (Ba/F3 cells) it was above 1 µM; in test [3], 0.1 to 1 µM.
As to `COc1c(Cl)cccc1Nc1c(-c2ccnc3cnc(C4CC4)nc23)[nH]c2c1C(=O)NCC2` [Compound 776, 3-[(3-chloro-2-methoxyphenyl)amino]-2-{2-cyclopropylpyrido[3,2-d]pyrimidin-8-yl}-1H,5H,6H,7H-pyrrolo[3,2-c]pyridin-4-one], the half-maximal inhibitory concentration (IC50) in test [1] was below 0.1 µM; in test [2], below 0.1 µM; at EGFR WT (Ba/F3 cells), 0.1 to 1 µM; in test [3], below 0.1 µM.
Take `COc1c(Cl)cccc1Nc1c(-c2ccncc2F)[nH]c2c1C(=O)NC[C@H]2CC1COC1` [468b]: the IC50 in test [1] was 0.1 to 1 µM; in test [2] it was 0.1 to 1 µM; on EGFR WT (Ba/F3 cells) it was above 1 µM; in test [3], 0.1 to 1 µM.
For `COc1cc2nccc(-c3[nH]c4c(c3Nc3cccc(F)c3OC)C(=O)NCC4)c2nc1OC` [Compound 807, 2-(6,7-dimethoxy-1,5-naphthyridin-4-yl)-3-[(3-fluoro-2-methoxyphenyl)amino]-1H,5H,6H,7H-pyrrolo[3,2-c]pyridin-4-one], the IC50 (in test [1]; in test [2]; at EGFR WT (Ba/F3 cells); in test [3]) was below 0.1 µM each time.
`CC[C@H]1CNC(=O)c2c1[nH]c(-c1ccnc(N)n1)c2Nc1cccc(Cl)c1OC` [189b]: the IC50 was below 0.1 µM in test [1], below 0.1 µM in test [2], 0.1 to 1 µM at EGFR WT (Ba/F3 cells) and below 0.1 µM in test [3].
For `COc1ncc2nccc(-c3[nH]c4c(c3Nc3cccc(Cl)c3C(F)(F)F)C(=O)NCC4)c2n1` [Compound 801, 3-{[3-chloro-2-(trifluoromethyl)phenyl]amino}-2-{2-methoxypyrido[3,2-d]pyrimidin-8-yl}-1H,5H,6H,7H-pyrrolo[3,2-c]pyridin-4-one], the 50% inhibitory concentration (IC50) in test [1] was 0.1 to 1 µM; in test [2], above 1 µM; on EGFR WT (Ba/F3 cells), above 1 µM; in test [3], above 1 µM.
`COc1c(Cl)cccc1Nc1c(-c2ccncc2F)[nH]c2c1C(=O)NC[C@]21CCN(C)C1` [compound 815]: the IC50 in test [1] is 0.1 to 1 µM; in test [2], 0.1 to 1 µM; on EGFR WT (Ba/F3 cells), above 1 µM; in test [3] it was 0.1 to 1 µM.
`C=CC(=O)N1CC[C@]2(CNC(=O)c3c2[nH]c(-c2ccncc2F)c3Nc2cccc(Cl)c2OC)C1` [compound 520]: the IC50 in test [1] was 0.1 to 1 µM; in test [2], 0.1 to 1 µM; on EGFR WT (Ba/F3 cells), 0.1 to 1 µM; in test [3], below 0.1 µM.
For `COc1c(Cl)cccc1Nc1c(-c2ccnc3ccc(OC4(C)CC4)nc23)[nH]c2c1C(=O)NC[C@H]2C` (single isomer, unassigned) [Compound 774], the IC50 (in test [1]; in test [2]; at EGFR WT (Ba/F3 cells); in test [3]) was below 0.1 µM each time.
In the case of `COc1ncc2nccc(-c3[nH]c4c(c3Nc3cccc(C)c3F)C(=O)NCC4)c2n1` [Compound 804, 3-[(2-fluoro-3-methylphenyl)amino]-2-[2-methoxypyrido[3,2-d]pyrimidin-8-yl]-1H,5H,6H,7H-pyrrolo[3,2-c]pyridin-4-one], the IC50 in test [1] was 0.1 to 1 µM; in test [2], below 0.1 µM; at EGFR WT (Ba/F3 cells) it was 0.1 to 1 µM; in test [3], below 0.1 µM.
Take `COc1c(F)cccc1Nc1c(-c2nnc3ccccn23)[nH]c2c1C(=O)NCC2` [compound 239]: the 50% inhibitory concentration (IC50) (in test [1]; in test [2]; on EGFR WT (Ba/F3 cells); in test [3]) was above 1 µM throughout.
